# Results published in patent US20140120063A1, “NUTRITIONAL AND METABOLIC APPROACHES TO PREVENT EMERGENCE OF ENTERIC PATHOGENS” (The Board of Trustees of the Leland Stanford Junior …, priority 2012, published 2014).
# What was measured:
# [1] = system: C. difficile; experiment: C. difficile density in feces of gnotobiotic mice given exogenous free sialic acid; assay type: in vivo
# Description: (BioTek, Winooski, Vt.) every 30 minutes, at 37° C. anaerobically (6% H2, 20% CO2, 74% N2). Fecal densities (CFU) of C. difficile were quantified by duplicate sampling with 1 μl loops and subsequent dilution and spot plating on blood-BHI supplemented with erythromycin.
# Germ-free Swiss-Webster mice were maintained in gnotobiotic isolators and fed an autoclaved standard diet (Purina LabDiet 5K67) or a polysaccharide-deficient diet (Sonnenburg, E. D., et al. Cell, 2010. 141(7): p. 1241-52), in accordance with A-PLAC, the Stanford IACUC. For all experiments involving C. difficile colonization of germ-free mice, the diet was switched to polysaccharide-deficient chow one day before inoculation with C. difficile.
# (§1) For sialic acid administration experiments, N-acetylneuraminic acid (Calbiochem or Santa Cruz Biotechnology) was administered in the water at a 1% concentration. Additionally, mice were orally gavaged 1 mg of sialic acid twice a day. The amount of sialic acid in the cecal contents were calculated to equal approximately 700 pmoles/mg of cecal contents, which mirrors the average concentration of free sialic acids we quantified post-antibiotic treatment (725 pmoles/mg).
# [2] = system: C. difficile nanE; experiment: C. difficile nanE gene expression (qRT-PCR) in feces of mice given exogenous free sialic acid; assay type: in vivo; conditions: sialic acid-fed Bt-ΔBT0455-associated mice, 1 day post-infection
# Description: as §1
# qRT-PCR analysis was performed on RNA extracted from cecal or fecal contents by phenolchloroform extraction and bead beating. Superscript II (Invitrogen) was utilized to convert RNA to cDNA, and SYBR Green (ABgene) in a MX3000P thermocycler (Strategene) was utilized. Fold changes were normalized to in vitro growths in Minimal Medium containing 0.5% glucose (MM-G) for C. difficile and LB for S. typhimurium.
# [3] = Amount of sialic acid in cecal contents after sialic acid administration; assay type: in vivo, mice; conditions: 1% in water plus 1 mg oral gavage twice a day
# Description: as §1
# All steps were carried out at 4° C. to minimize enzymatic hydrolysis. Approximately 200 mg of flash-frozen cecal contents were weighed out and resuspended in 400 μl dH2O, Samples were vortexed for 30 minutes at max speed and centrifuged for 15 minutes at 14,000×g in the tabletop centrifuge.
# The supernatant was stored, and the pellet resuspended in an additional 400 μl dH2O. The tubes were vortexed individually until the pellet was dispersed, and then all samples were vortexed for 30 minutes, centrifuged, and supernatants were pooled. This process was repeated once more for a total volume of approximately 1 ml. […] The resulting product was analyzed by reverse-phase HPLC using a C18 column (Dionex) at a flow rate of 0.9 ml/min, using a gradient of 5% to 11% acetonitrile in 7% methanol. […] The DMB-derivatized sialic acids were identified and quantified by comparing elution times and peak areas to known standards.
# [4] = system: S. typhimurium nanA mutant; experiment: Growth of S. typhimurium nanA mutant in minimal medium in the presence of sialic acid; assay type: cell-based; conditions: M9 minimal media, 0.25% sialic acid with glucose or glycerol
# Description: FIG. 8. Requirement for S. typhimurium nan and fuc operons for in vitro growth on sialic acid and fucose. A) S. typhimurium SL1344 encodes the genes necessary to catabolize sialic acid and fucose. The nan and fuc operons are pictured in their genomic context. B) Growth of wild-type S. typhimurium and mutant S. typhimurium strains in M9 minimal medium containing 0.5% glucose (M9+glucose), 0.5% sialic acid (M9+sialic acid), or 0.5% fucose (M9+fucose). OD600 measurements were taken every 30 minutes. C, D) ΔNanA E. coli (Keio strain JW3194) and wild-type and ΔNanA S. typhimurium SL1344 strains were grown aerobically in M9 minimal media containing 0.5% total carbohydrate. Cells were grown in (C) 0.5% glucose or 0.25% glucose and 0.25% sialic acid, and (D) 0.5% glycerol (gro) or 0.25% glycerol and 0.25% sialic acid. Optical densities were measured at indicated times.
# All strains of S. typhimurium were derived from wild-type strain SL1344, which is naturally streptomycin-resistant. […] Fecal densities (CFU) of S. typhimurium were quantified by duplicate sampling with 1 μl loops, and subsequent dilution and spot plating on plain LB agar for gnotobiotic experiments and LB agar with streptomycin for conventional experiments.
smiles,measurement,setting,value
"CC(=O)N[C@H]1[C@H]([C@H](O)[C@H](O)CO)OC(O)(C(=O)O)C[C@@H]1O (some centres unmarked) [sialic acid, N-acetylneuraminic acid]",C. difficile density in the lumen of the gut,"[1]; GF mice infected with C. difficile, free sialic acid administration vs PBS, 1 day post-inoculation",higher densities
same,C. difficile density,"[1]; feces, 1 day post-infection, Bt-ΔBT0455 monoassociated mice fed free sialic acid (1% in water plus 1 mg gavage twice a day), unsupplemented controls 6.8×10^7",4.8×10^8 CFU/ml
same,"C. difficile nanE expression, fold higher over PBS-treated controls",[2],58 fold
same,amount of sialic acid in the cecal contents,[3],approximately 700 pmoles/mg of cecal contents
same,toxicity of sialic acid to the nanA mutant,[4],did not pose a toxicity issue
